For this data set, the target named is DGAT2. As to conditions: ASO.

Where “and” joins values, the source holds several entries; their conditions need not be identical. Identical values can stand only once. After the bases stand the sugars from the 5' end (letter, count) and the backbone: PS all phosphorothioate, else s phosphorothioate and o phosphodiester by linkage. Methylation of C is not given here. e = 2'-O-(2-methoxyethyl) (MOE); d = 2'-deoxy (DNA)

Consider “CCAGTTTCGGACCCACTGTG (sugars e3 d14 e3, PS)”, for which the target mRNA inhibition (HepG2, 0.12 µM) is 82%. In the case of “AATGTCACAAGTTCACAAAC (sugars e5 d10 e5, PS)”, the target mRNA inhibition (HepG2, 0.12 µM) amounted to 4%. As to “GAGCAGATCTCAAAATCTCG (sugars e5 d10 e5, PS)”, the target mRNA inhibition turned out to be 72% (HepG2, 2.5 µM) and 87% (HepG2, 10 µM).

In the case of “GTCCTAGTGCCCCAGGG (sugars e3 d10 e4, PS)”, the target mRNA inhibition by setting is: (HepG2, 2.5 µM) 76% and 86%; (HepG2, 10 µM) 93% and 95%.

As to “CAGCACTAATTTTTACAACT (sugars e5 d10 e5, PS)”, the target mRNA inhibition by setting is: (HepG2, 2.5 µM) 86%; (HepG2, 10 µM) 95%.

Turning to “TAGAGCACTTGATCTGGGAC (sugars e5 d10 e5, PS)”, the target mRNA inhibition runs as follows: (HepG2, 2.5 µM) 38% and 46%; (HepG2, 10 µM) 81% and 85%. For the sequence “TCCAGGACCCTGGACATGAT (sugars e5 d10 e5, PS)”, the target mRNA inhibition (HepG2, 0.12 µM) was determined as 50%.

Regarding “GCATTCTTGCCAGGCATGGA (sugars e5 d10 e5, PS)”, the target mRNA inhibition turned out to be 41% (HepG2, 2.5 µM) and 74% (HepG2, 10 µM). With “ATACCTTATCTTTGTCCACA (sugars e5 d10 e5, PS)”, the target mRNA inhibition reads like this: (HepG2, 2.5 µM) 79%; (HepG2, 10 µM) 94%. “CTGGAACTTCTTCTGGACCC (sugars e5 d10 e5, PS)” showed a target mRNA inhibition (HepG2, 0.12 µM) of 25%. Consider “GTACACTTCATTCTCTCCAA (sugars e5 d10 e5, PS)”, for which the target mRNA inhibition (HepG2, 0.12 µM) worked out at 82%. On to “GGAAACTTTCCCACAGTCAG (sugars e5 d10 e5, PS)”, for which the target mRNA inhibition came out at 69% (HepG2, 2.5 µM) and 94% (HepG2, 10 µM).

For “GCAGGTTGTGTGTCTTCACC (sugars e2 d13 e5, PS)”, the target mRNA inhibition (HepG2, 0.12 µM) is 56%.

Regarding “GAGTAGTCAAAGGTGGCTTC (sugars e5 d10 e5, PS)”, the target mRNA inhibition reads like this: (HepG2, 2.5 µM) 66%; (HepG2, 10 µM) 78%.

On to “ATAGTTCCTGGTGGTCAGCA (sugars e5 d10 e5, PS)”, for which the target mRNA inhibition (HepG2, 0.12 µM) stood at 46%. For the sequence “AAGATTCATAACTATATCTA (sugars e5 d10 e5, PS)”, the target mRNA inhibition (HepG2, 0.12 µM) is 6%.

“GCCCAGTTTCGGACCCACTG (sugars e5 d10 e5, PS)” had a target mRNA inhibition (HepG2, 2.5 µM) of 37%; a target mRNA inhibition (HepG2, 10 µM) of 46%; a target mRNA inhibition (HepG2, 20 µM) of 65%. Turning to “GTCTGTGCTGCATCCATGTC (sugars e5 d10 e5, PS)”, the target mRNA inhibition (HepG2, 2.5 µM) is 41% and 50%; the target mRNA inhibition (HepG2, 10 µM) came to 74%. For “GGTCTTTTTGGCTGCCCTGC (sugars e5 d10 e5, PS)”, the target mRNA inhibition (HepG2, 2.5 µM) is 81% and 84%; the target mRNA inhibition (HepG2, 10 µM) is 87% and 90%. Consider “GACAGGACCCACTGGAGCAC (sugars e2 d13 e5, PS)”, for which, where the note is “HepG2, 0.12 µM”, the target mRNA inhibition worked out at 73%. In the case of “ATCACAGAGCTTGGTTCATC (sugars e5 d10 e5, PS)”, the target mRNA inhibition was 61% and 44% (HepG2, 2.5 µM); 93% and 85% (HepG2, 10 µM).

For “AGTGCTTTCTAAGTACCCTT (sugars e5 d10 e5, PS)”, the target mRNA inhibition by setting is: (HepG2, 2.5 µM) 91% and 88%; (HepG2, 10 µM) 90% and 94%. In turn, “TTTCTTATCTTCAATCCTCA (sugars e5 d10 e5, PS)” had a target mRNA inhibition (HepG2, 2.5 µM) of 56% and a target mRNA inhibition (HepG2, 10 µM) of 90%. Consider “GTGCAGCCTACAAGAGCCTG (sugars e5 d10 e5, PS)”, for which the target mRNA inhibition reads like this: (HepG2, 2.5 µM) 67%; (HepG2, 10 µM) 86%. Regarding “GGAAAGGCACAGGCTTTGGG (sugars e5 d10 e5, PS)”, the target mRNA inhibition is 57% and 66% (HepG2, 2.5 µM); 92% and 97% (HepG2, 10 µM).

Take “GGAAAACTTAGGCATGCTTC (sugars e5 d10 e5, PS)”: the target mRNA inhibition runs as follows: (HepG2, 2.5 µM) 64% and 72%; (HepG2, 10 µM) 90% and 87%. In turn, “TTAAAAAAGACCTAACATTG (sugars e5 d10 e5, PS)” came in with a target mRNA inhibition (HepG2, 0.12 µM) of 0%. As for “GCAATGTTGCCATCATA (sugars e3 d10 e4, PS)”, the target mRNA inhibition is, setting by setting: (HepG2, 2.5 µM) 69% and 76%; (HepG2, 10 µM) 90% and 95%. On to “ATCCCAACTCTGCCATTTAA (sugars e5 d10 e5, PS)”, for which the target mRNA inhibition turned out to be 60% (HepG2, 2.5 µM) and 90% (HepG2, 10 µM).

In turn, “CTGGTGGTCAGCAGGTTGTG (sugars e5 d10 e5, PS)” had a target mRNA inhibition (HepG2, 0.12 µM) of 57%. “GATGGCACTGCAGGCCACTC (sugars e5 d10 e5, PS)” registered a target mRNA inhibition (HepG2, 0.12 µM) of 28%.

Where the note is “HepG2, 0.12 µM”, “CTGAATCAAAATCTGCATTT (sugars e5 d10 e5, PS)” had a target mRNA inhibition of 28%. Regarding “TCTCATTTCTTATCTTCAAT (sugars e5 d10 e5, PS)”, the target mRNA inhibition is 60% and 72% (HepG2, 2.5 µM); 88% and 93% (HepG2, 10 µM). Take “GCCAGGCCCCTTCTGAAGAG (sugars e5 d10 e5, PS)”: where the note is “HepG2, 0.12 µM”, the target mRNA inhibition stood at 36%. As to “TCTCCTGTTTGATGGGT (sugars e3 d10 e4, PS)”, the target mRNA inhibition by setting is: (HepG2, 2.5 µM) 41%; (HepG2, 10 µM) 63%.

The sequence “AGGGCACCAGCCCCCAGGTG (sugars e5 d10 e5, PS)” yielded a target mRNA inhibition (HepG2, 0.12 µM) of 29%.

In the case of “CCAAGCAGGAGCTGGACAGA (sugars e5 d10 e5, PS)”, the target mRNA inhibition (HepG2, 0.12 µM) was 19%.

Source of the values: the OligoGym collection.
